Square brackets hold non-standard residues; d marks the D form. Ends that are not written are not given here. pGlu = O=C1CC[C@@H](C(=O)O)N1
Tested on: panelists
Assay: Attribute perception scores of flavor enhancers in solution (Example 6)
Format: in vivo, human
Design: key to Metallic / Numbing / Atringent / Salt / Sweet / Sour / Bitter / Umami / Sour, mean evaluation score in solution / Numbing, mean evaluation score in solution / Astringent / Umami FF: 15-point intensity scale, 0 = none, 15 = very strong
Conditions: for Astringent, mean evaluation score in solution / Bitter, mean evaluation score in solution / Flinty/Mineral, mean evaluation score in solution / Metallic, mean evaluation score in solution / Numbing, mean evaluation score in solution / Salt, mean evaluation score in solution / Sour, mean evaluation score in solution / Sweet, mean evaluation score in solution / Umami FF, mean evaluation score in solution / Umami, mean evaluation score in solution / Atringent / Bitter / Metallic / Mineral/Flinty / Numbing / Salt / Sour / Sweet / Umami / Umami/brothy: 15-point scale; for Atringent / Bitter / Metallic / Mineral/Flinty / Numbing / Salt / Sour / Sweet / Umami / Umami/brothy: solution
[1] = 1.0 ppb in solution (NaCl, water)
[2] = 1.0 to 100 ppb, listed as UE 30
[3] = 10.0 ppb in solution (NaCl, water)
[4] = 100.0 ppb in solution (NaCl, water)

[pGlu]-Val-Cys [UE-30]
Astringent, mean evaluation score in solution [1]: 0.0
Bitter, mean evaluation score in solution [1]: 0.0
Flinty/Mineral, mean evaluation score in solution [1]: 0.4
Metallic, mean evaluation score in solution [1]: 0.0
Numbing, mean evaluation score in solution [1]: 0.0
Salt, mean evaluation score in solution [1]: 1.2
Sour, mean evaluation score in solution [1]: 0.0
Sweet, mean evaluation score in solution [1]: 0.0
Umami FF, mean evaluation score in solution [1]: 0.1
Umami, mean evaluation score in solution [1]: 0.0
Mineral/Flinty aromatic in solution as the concentration increases (1.0 to 100 ppb): increases
Salt perception level in solution as the concentration increases (1.0 to 100 ppb): increases slightly
Umami aromatic in solution as the concentration increases (1.0 to 100 ppb): shows no distinct pattern
Umami feeling factor in solution as the concentration increases (1.0 to 100 ppb): increases
Mineral/Flinty aromatic in solution as the concentration increases [2]: increase slightly
Salt perception level in solution as the concentration increases [2]: increase slightly
Astringent, mean evaluation score in solution [3]: 0.0
Bitter, mean evaluation score in solution [3]: 0.0
Flinty/Mineral, mean evaluation score in solution [3]: 0.8
Metallic, mean evaluation score in solution [3]: 0.0
Numbing, mean evaluation score in solution [3]: 0.0
Salt, mean evaluation score in solution [3]: 1.5
Sour, mean evaluation score in solution [3]: 0.0
Sweet, mean evaluation score in solution [3]: 0.0
Umami FF, mean evaluation score in solution [3]: 0.6
Umami, mean evaluation score in solution [3]: 0.4
Astringent, mean evaluation score in solution [4]: 0.0
Bitter, mean evaluation score in solution [4]: 0.7
Flinty/Mineral, mean evaluation score in solution [4]: 1.1
Metallic, mean evaluation score in solution [4]: 0.0
Numbing, mean evaluation score in solution [4]: 0.0
Salt, mean evaluation score in solution [4]: 1.8
Sour, mean evaluation score in solution [4]: 0.0
Sweet, mean evaluation score in solution [4]: 0.0
Umami FF, mean evaluation score in solution [4]: 2.1
Umami, mean evaluation score in solution [4]: 0.1
Atringent (Concentration 1, MAX): 0.0
Bitter (Concentration 1, MAX): 0.0
Metallic (Concentration 1, MAX): 0.0
Mineral/Flinty (Concentration 1, MAX): 0.5
Numbing (Concentration 1, MAX): 0.0
Salt (Concentration 1, MAX): 1.5
Sour (Concentration 1, MAX): 0.0
Sweet (Concentration 1, MAX): 0.0
Umami (Concentration 1, MAX): 0.5
Umami/brothy (Concentration 1, MAX): 0.0
Atringent (Concentration 1, MEAN): 0.0
Bitter (Concentration 1, MEAN): 0.0
Metallic (Concentration 1, MEAN): 0.0
Mineral/Flinty (Concentration 1, MEAN): 0.4
Numbing (Concentration 1, MEAN): 0.0
Salt (Concentration 1, MEAN): 1.2
Sour (Concentration 1, MEAN): 0.0
Sweet (Concentration 1, MEAN): 0.0
Umami (Concentration 1, MEAN): 0.1
Umami/brothy (Concentration 1, MEAN): 0.0
Atringent (Concentration 1, MIN): 0.0
Bitter (Concentration 1, MIN): 0.0
Metallic (Concentration 1, MIN): 0.0
Mineral/Flinty (Concentration 1, MIN): 0.0
Numbing (Concentration 1, MIN): 0.0
Salt (Concentration 1, MIN): 1.0
Sour (Concentration 1, MIN): 0.0
Sweet (Concentration 1, MIN): 0.0
Umami (Concentration 1, MIN): 0.0
Umami/brothy (Concentration 1, MIN): 0.0
Atringent (Concentration 10, MAX): 0.0
Bitter (Concentration 10, MAX): 0.0
Metallic (Concentration 10, MAX): 0.0
Mineral/Flinty (Concentration 10, MAX): 1.0
Numbing (Concentration 10, MAX): 0.0
Salt (Concentration 10, MAX): 2.0
Sour (Concentration 10, MAX): 0.0
Sweet (Concentration 10, MAX): 0.0
Umami (Concentration 10, MAX): 1.0
Umami/brothy (Concentration 10, MAX): 0.8
Atringent (Concentration 10, MEAN): 0.0
Bitter (Concentration 10, MEAN): 0.0
Metallic (Concentration 10, MEAN): 0.0
Mineral/Flinty (Concentration 10, MEAN): 0.8
Numbing (Concentration 10, MEAN): 0.0
Salt (Concentration 10, MEAN): 1.5
Sour (Concentration 10, MEAN): 0.0
Sweet (Concentration 10, MEAN): 0.0
Umami (Concentration 10, MEAN): 0.6
Umami/brothy (Concentration 10, MEAN): 0.4
Atringent (Concentration 10, MIN): 0.0
Bitter (Concentration 10, MIN): 0.0
Metallic (Concentration 10, MIN): 0.0
Mineral/Flinty (Concentration 10, MIN): 0.0
Numbing (Concentration 10, MIN): 0.0
Salt (Concentration 10, MIN): 1.0
Sour (Concentration 10, MIN): 0.0
Sweet (Concentration 10, MIN): 0.0
Umami (Concentration 10, MIN): 0.0
Umami/brothy (Concentration 10, MIN): 0.0
Atringent (Concentration 100, MAX): 0.0
Bitter (Concentration 100, MAX): 1.5
Metallic (Concentration 100, MAX): 0.0
Mineral/Flinty (Concentration 100, MAX): 1.5
Numbing (Concentration 100, MAX): 0.0
Salt (Concentration 100, MAX): 2.0
Sour (Concentration 100, MAX): 0.0
Sweet (Concentration 100, MAX): 0.0
Umami (Concentration 100, MAX): 3.0
Umami/brothy (Concentration 100, MAX): 0.5
Atringent (Concentration 100, MEAN): 0.0
Bitter (Concentration 100, MEAN): 0.7
Metallic (Concentration 100, MEAN): 0.0
Mineral/Flinty (Concentration 100, MEAN): 1.1
Numbing (Concentration 100, MEAN): 0.0
Salt (Concentration 100, MEAN): 1.8
Sour (Concentration 100, MEAN): 0.0
Sweet (Concentration 100, MEAN): 0.0
Umami (Concentration 100, MEAN): 2.1
Umami/brothy (Concentration 100, MEAN): 0.1
Atringent (Concentration 100, MIN): 0.0
Bitter (Concentration 100, MIN): 0.0
Metallic (Concentration 100, MIN): 0.0
Mineral/Flinty (Concentration 100, MIN): 0.8
Numbing (Concentration 100, MIN): 0.0
Salt (Concentration 100, MIN): 1.0
Sour (Concentration 100, MIN): 0.0
Sweet (Concentration 100, MIN): 0.0
Umami (Concentration 100, MIN): 1.5
Umami/brothy (Concentration 100, MIN): 0.0
